Structures can show the parent of a compound that is named as a salt.
Legend:
[1] = cited from earlier work
[2] = in vivo; cited from earlier work
[3] = indirect method of oral calcium loading: increment in urinary calcium; assay type: in vivo; details: second two hours after oral 500 mg calcium; 10 normal subjects; mean ± SD; ** p < 0.01 vs tricalcium dicitrate (pre-mixes 1.5 and 1.25)
Protocol: (§1) The pre-mixes yielded greater absorbability of calcium than tricalcium dicitrate. […] The calcium absorption was also measured more directly from the recovery of radiocalcium after taking labeled calcium preparations in 6 normal subjects.
This indirect measure of calcium absorption was greatest for the pre-mix with a calcium/citrate molar ratio of 1.25 than for other pre-mixes.

[4] = oral; comparable amount; cited from earlier work
[5] = during treatment; cited from earlier work
[6] = radiocalcium absorption (fecal recovery of radioactive calcium); assay type: in vivo; details: 6 normal subjects; oral radiocalcium-labeled; mean ± SD; * p < 0.05 vs tricalcium dicitrate (pre-mix 1.25)
Protocol: as §1

[7] = blood pressure in essential hypertension; assay type: in vivo; details: 800 mg calcium/day
[8] = cited from earlier work; remark: listed apart in the source
[9] = patients with absorptive hypercalciuria; cited from earlier work

## CC#C[C@]1(O)CC[C@H]2[C@@H]3CCc4cc(O)ccc4[C@H]3CC[C@@]21C [estrogen]
[1]; Recker et al., osteoporosis prone postmenopausal women
  prevention of further bone losses: may be prevented by estrogen treatment

## [OH][Al]([OH])[OH] [aluminum hydroxide]
[2]
  aluminum accumulation / osteomalacia: aluminum accumulation in the body causing a vitamin D resistant osteomalacia

## O=C(O)CC(O)(CC(=O)O)C(=O)O [Tricalcium Dicitrate, tricalcium dicitrate]
[3]
  Increment in Urinary Calcium: 0.087 ± 0.087 mg calcium/100 ml glomerular f
[4]
  calcium absorbability versus calcium carbonate: more calcium was absorbable from calcium citrate than from a comparable amount of calcium carbonate
[5]
  urinary citrate change: Urinary citrate rose significantly during calcium citrate treatment
[6]
  Calcium Absorption: 19.1 ± 6.9%
[7]
  effect on blood pressure: Neither calcium carbonate nor tricalcium dicitrate (800 mg calcium/day) was effective in lowering blood pressure
1.5-2.75 g calcium/day, preliminary data
  control of hyperphosphatemia: satisfactory control of hyperphosphatemia could be achieved in the majority of patients
After 8 weeks of treatment, p< 0.05, 1.5-2.75 g calcium/day
  serum aluminum concentration after treatment: 79 ng/mL
Before treatment
  serum aluminum concentration before treatment: 127 ng/mL

## O=C(O)O [calcium carbonate]
[5]
  urinary citrate change: not during calcium carbonate therapy
[1]; Christiansen et al., postmenopausal women
  prevention of vertebral bone loss: ineffective in preventing vertebral bone loss
[8]; 3-20 g calcium/day, Clarkson et al.
  absorption of ingested phosphate: prevent the absorption of ingested phosphate
[7]
  effect on blood pressure: Neither calcium carbonate nor tricalcium dicitrate (800 mg calcium/day) was effective in lowering blood pressure

## O=C(O)CC(O)(CC(=O)O)C(=O)O [calcium citrate]
[8]; 2 g calcium/day, patients with renal failure, McDonald et al.
  serum phosphate concentration: effective in restoring normal serum phosphate concentration

## O=C(O)[C@H](O)[C@@H](O)[C@H](O)[C@H](O)CO [calcium gluconate]
[9]
  urinary calcium / activity product ratio (calcium oxalate saturation): increased urinary calcium, leading to an increased activity product ratio
